Data on one compound can be found in patent US4438044A, “Di-L-cysteine L-malate and process for the production thereof” (priority 1980, dated 1984).

One series can be described thus: Solubility in water. The series is classed as physicochemical. The conditions noted are these: 10° C.
The format of series [1] is physicochemical. As for the experimental part:
The storage stability of the above crystalline product and L-cysteine hydrochloride anhydride is measured by keeping them at 40° C. The results are shown in the accompanying FIG. 3.

Values after ≈ are worked out from the molar mass of the structure shown.

Take `N[C@@H](CS)C(=O)O` [di-L-cysteine L-malate]: in “Solubility in water”, the concentration in solution (solubility) was 222 mg/mL (≈ 1830 mM). Moreover, in series [1], the “stability in the crystalline form” value is listed as “extremely stable” and the storage stability entry is given as “excellent stability”.

A word on the solubility: it is the concentration that dissolves in the medium under given conditions. Higher therefore signals a readily soluble substance.
